The subject of assay [1] is rough mutant E. coli J5 bacteria. Kind of assay: Radial diffusion bactericidal assay, E. coli J5. Conditions: for pmol added to well to achieve a 30 mm^2 bactericidal zone, E. coli J5 / bactericidal activity (in words): radial diffusion; for pmol added to well to achieve a 30 mm^2 bactericidal zone, E. coli J5: PROBIT analysis, E. coli J5 (rough); for bactericidal activity (in words): E. coli J5. It counts as cell-based. The procedure, abridged: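 Wells received 5 or 10 μL of BPI fragment, pre-incubated 3 h at 37 °C. The underlayer agarose carried washed log-phase organisms at 4×10^6 CFU/mL.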

Assay [2] in a line: Lipid A binding competition with [125I]-rLBP. Conditions: for pIC50: read-out: IC50 (inhibition of Lipid A binding of radiolabeled rLBP). As to the method:
A second binding assay was developed, wherein radiolabeled recombinant LPS binding protein ([^125I]-rLBP) was used instead of radiolabeled rBPI23 in competition experiments with BPI functional domain peptides BPI.2, BPI.3, BPI.4, BPI.5, BPI.7, BPI.13, BPI.14, BPI.29, BPI.30 and BPI.48, rBPI, rBPI21Δcys, and rLBP25 were included in these assays as controls. In these experiments, Lipid A was adsorbed to the wells at a concentration of 0.7 μg/mL in methanol. Incubation of radiolabeled rLBP (a total of 650,000 cpm and a specific activity of 3.45 μCi/μg) was performed for 2.5 hr at 37° C. in the presence of BPI peptides in a series of increasing concentrations. IC50 values (i.e., the concentration at which Lipid A binding of radiolabeled rLBP25 is inhibited to one half the value achieved in the absence of the peptide) are shown in accompanying Table XI.

Assay [3] has as its system RAW 264.7 cells. The assay can be described thus: LPS neutralization cellular proliferation assay, RAW 264.7 cells. Type of assay: cell-based, mouse. In short, it runs like this:
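Mouse RAW 264.7 cells were primed 24 h with 50U/mL mouse γ-interferon, then exposed about 15 h to E. coli O113 LPS in serum-free RPMI with or without BPI peptides at 25 ng/mL–50 μg/mL. Proliferation was quantified by [^3H]-thymidine uptake, 1 μCi/well, added at 5 h.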

Assay [4] in a line: 3H-heparin binding assay (affinity and capacity). The note with it: for Heparin Capacity: heparin bound at saturation; for pKd: read-out: Heparin Affinity. In short, it runs like this:
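Peptide fragments were bound to PVDF-membrane wells and incubated with 3H-heparin in blocking buffer for 1 h at 4 °C. After washing, bound radioactivity was quantified by liquid scintillation counting, with BSA background subtracted; rBPI23 served as positive control.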

Assay [5] relates to Staphylococcus aureus. Kind of assay: Radial diffusion bactericidal assay, Staphylococcus aureus. It counts as cell-based. The note with it: for pmol added to well to achieve a 30 mm^2 bactericidal zone, S. aureus: radial diffusion, PROBIT analysis; for bactericidal activity (in words): FIG. 10e.
The subject of assay [6] is E. coli 0111:B4 (smooth) bacteria. The assay can be described thus: Radial diffusion bactericidal assay, E. coli 0111:B4. It counts as cell-based. The note with it: radial diffusion; for bactericidal activity (in words): E. coli 0111:B4; for pmol added to well to achieve a 30 mm^2 bactericidal zone, E. coli O111:B4: PROBIT analysis, E. coli O111:B4 (smooth).

pIC50, pKd: −log10 of the molar value. “Also recorded” adds a separate entry of the source. Ends that are not written are not given here.

IKISGKWKAQKRFLK [BPI.2]: in assay [1], the “pmol added to well to achieve a 30 mm^2 bactericidal zone, E. coli J5” value (“pmol added to well … E. coli J5” below) is 3,001.50 pmol. In addition, in assay [2], the “IC50 (inhibition of Lipid A binding of radiolabeled rLBP)” value is 2.36 µg/mL and the pIC50 was 5.89. Moreover, the “IC50 (peptide concentration at which RAW cell growth was inhibited by 50%)” value in assay [3] is on record as “— (No proliferation decrease up to 50 μg/ml)”. Also, in assay [4], the “heparin binding activity (in words)” value was “little or no heparin binding activity”, the “heparin binding capacity (in words)” value is reported as “low heparin binding capacity”, the “Heparin Capacity” value is given as 203.6 ng and the pKd was 6.46. Moreover, the “pmol added to well to achieve a 30 mm^2 bactericidal zone, S. aureus” value (shortened to “pmol added to well … S. aureus”) in assay [5] is given as “b (no detectable activity up to 5 μg/well)”. Further, in assay [6], the “bactericidal activity (in words)” value is recorded as “exhibited bactericidal activity” and the “pmol added to well to achieve a 30 mm^2 bactericidal zone, E. coli O111:B4” value (shortened to “pmol added to well … E. coli O111:B4”) is recorded as “b (no detectable activity up to 5 μg/well)”.

As to “KSKVGWLIQLFHKK-NH2 (C-terminus assumed) [BPI.13]”, in assay [1], the “concentration above which appreciable bactericidal activity was shown” value is listed as “greater than 30 μg/mL” and the “pmol added to well … E. coli J5” value is 440.80 pmol. Moreover, in assay [2], the “IC50 (inhibition of Lipid A binding of radiolabeled rLBP)” value stood at 1.7 µg/mL and the pIC50 was 6.00. Further, in assay [3], the “EC50 (peptide concentration at which the growth inhibitory effect of LPS was reversed by 50%)” value is 1.9 ± 0.4 µg/mL. Besides, in assay [4], the “Heparin Capacity” value is recorded as 369.1 ng and the pKd is 6.01. In assay [5], the “bactericidal activity (in words)” value is “low levels of activity” and the “pmol added to well … S. aureus” value is 5,341.27 pmol. Moreover, the “pmol added to well … E. coli O111:B4” value in assay [6] is given as 5,857.40 pmol.

“KSKVGWLIQLFHKKKSKVGWLIQLFHKK-NH2 (C-terminus assumed) [BPI.29]”: in assay [1], the “bactericidal activity (in words)” value was “greater bactericidal activity; also recorded: highly bactericidal” and the “pmol added to well … E. coli J5” value came to 441.60 pmol. In assay [2], the “IC50 (inhibition of Lipid A binding of radiolabeled rLBP)” value stood at 0.44 µg/mL and the negative-log IC50 (pIC50) is 6.89. Also, in assay [3], the “EC50 (peptide concentration at which the growth inhibitory effect of LPS was reversed by 50%)” value is 0.1 ± 0.02 µg/mL and the “IC50 (peptide concentration at which RAW cell growth was inhibited by 50%)” value was 13.6 ± 0.4 µg/mL. Besides, in assay [4], the “heparin binding capacity (in words)” value was “extremely high heparin capacity”, the “Heparin Capacity” value turned out to be 463.7 ng and the pKd is 6.37. In addition, in assay [5], the “bactericidal activity (in words)” value is “moderate levels of activity” and the “pmol added to well … S. aureus” value is 15,508.98 pmol.

For KWKAAARFLKKWKAAARFLK [BPI.48], in assay [1], the “bactericidal activity (in words)” value was “highly bactericidal” and the “pmol added to well … E. coli J5” value came out at 42.40 pmol. In assay [2], the “IC50 (inhibition of Lipid A binding of radiolabeled rLBP)” value amounted to 0.48 µg/mL and the pIC50 is 6.70. Moreover, in assay [3], the “EC50 (peptide concentration at which the growth inhibitory effect of LPS was reversed by 50%)” value worked out at 1.3 ± 0.9 µg/mL and the “IC50 (peptide concentration at which RAW cell growth was inhibited by 50%)” value worked out at 5.0 ± 0.1 µg/mL. In assay [4], the “heparin binding capacity (in words)” value is “extremely high heparin capacity”, the “Heparin Capacity” value stood at 442.3 ng and the pKd was 5.85. Also, the “pmol added to well … S. aureus” value in assay [5] was 4,089.14 pmol. Further, the “pmol added to well … E. coli O111:B4” value in assay [6] is 253.54 pmol.

For “KWKAQKRFLKKSKVGWLIQLFHKK-NH2 (C-terminus assumed) [BPI.30]”, in assay [1], the “bactericidal activity (in words)” value is “highest bactericidal activity; also recorded: highly bactericidal” and the “pmol added to well … E. coli J5” value was determined as 76.38 pmol. In assay [2], the “IC50 (inhibition of Lipid A binding of radiolabeled rLBP)” value came out at 0.75 µg/mL and the pIC50 is 6.60. In addition, in assay [3], the “EC50 (peptide concentration at which the growth inhibitory effect of LPS was reversed by 50%)” value is 1.2 ± 1.1 µg/mL and the “IC50 (peptide concentration at which RAW cell growth was inhibited by 50%)” value worked out at 10.5 ± 1.2 µg/mL. For the same substance, in assay [4], the “heparin binding capacity (in words)” value is given as “extremely high heparin capacity”, the “Heparin Capacity” value is listed as 499.4 ng and the pKd was 6.23. Also, in assay [5], the “bactericidal activity (in words)” value is recorded as “highest amount of bactericidal activity” and the “pmol added to well … S. aureus” value is recorded as 1,216.37 pmol. For the same substance, the “pmol added to well … E. coli O111:B4” value in assay [6] was 608.20 pmol.

Turning to “KWKAQKRFLKKWKAQKRFLK-NH2 (C-terminus assumed) [BPI.7]”, in assay [1], the “bactericidal activity (in words)” value was “exhibited bactericidal activity; also recorded: high levels of bactericidal activity; also recorded: highly bactericidal” and the “pmol added to well … E. coli J5” value is 175.40 pmol. Further, in assay [2], the “IC50 (inhibition of Lipid A binding of radiolabeled rLBP)” value worked out at 0.26 µg/mL and the pIC50 was 7.00. Moreover, the “EC50 (peptide concentration at which the growth inhibitory effect of LPS was reversed by 50%)” value in assay [3] was over 50 µg/mL. In assay [4], the “heparin binding capacity (in words)” value is recorded as “extremely high heparin binding capacity”, the “Heparin Capacity” value worked out at 405.6 ng and the pKd is 6.04. Moreover, in assay [5], the “bactericidal activity (in words)” value is reported as “low levels of activity” and the “pmol added to well … S. aureus” value is listed as 3,769.60 pmol. In addition, in assay [6], the “bactericidal activity (in words)” value is recorded as “exhibited bactericidal activity” and the “pmol added to well … E. coli O111:B4” value is 2,072.10 pmol.

NVGLKFSISNANIKISGKWKAQKRFLK [BPI.3]: in assay [1], the “bactericidal activity (in words)” value is “exhibited bactericidal activity” and the “pmol added to well … E. coli J5” value was determined as 695.78 pmol. Further, in assay [2], the “IC50 (inhibition of Lipid A binding of radiolabeled rLBP)” value was determined as 0.75 µg/mL and the pIC50 is 6.60. In assay [4], the “heparin binding activity (in words)” value was “moderate heparin binding activity”, the “Heparin Capacity” value is 264.5 ng and the pKd is 6.11. For the same substance, in assay [6], the “bactericidal activity (in words)” value is “exhibited bactericidal activity” and the “pmol added to well … E. coli O111:B4” value is on record as “b (no detectable activity up to 5 μg/well)”.

One may read the pIC50 as the IC50 on a negative log10 scale, so that one unit is a factor of ten.

(Values after patent publication US20040023884A1, “Biologically active peptides from functional domains of bactericidal/permeability-increasing protein and uses thereof” (priority 1993, published 2004).)
